The test system of one data set is PC3 cells. As to the kind of experiment: PC3 cell proliferation (MTT). Also on record: key to Cell proliferation: active: Active: able to reduce proliferation to an extent greater than 50 %; inactive: able to reduce proliferation to an extent less than 50 %. The conditions noted are these: PC3 cells, 10 μM of each prodrug. Format: cell-based. The procedure: The biological activity of each prodrug was tested by analyzing their ability to decrease PC3 proliferation as a rapid test to evaluate the PI3Ks inhibitory activity after hydrolysis in a cell‐based assay. […] The choice of using such a cut‐off was due to the intent to identify rapidly which prodrug could be hydrolyzed in the assay to release the active compound. As expected, a good correlation between rate of hydrolysis and cellular activity was observed, and esters 64–68 and 70–73 were determined to be good candidates for topical use. We decided to focus our attention on ester 64, as its half‐life was a good compromise for a prodrug. The EC50 value of this ester was then evaluated on PC3 cells, and a value of (2.3±0.8) μM was obtained.
Cell proliferation: PC3 cell proliferation was measured with a 3‐(4,5‐dimethyl thiazol‐2‐yl)‐2,5‐diphenyltetrazolium bromide (MTT)‐based colorimetric assay (#11 465 007 001 Roche Diagnostic GmbH, Germany). PC3 cells were seeded in a 96‐well plate at a concentration of 10^4 cells mL^−1. PC3 cells were treated for 72 h with increasing concentrations of 64, and MTT was added. After ON solubilization of the MTT metabolite, formazan, the absorbance (λ=550–600 nm absorbance, with a reference wavelength of 650 nm) of each well was read in a multi‐well reader (Glomax multi detection system, Promega, model number 9301‐010). The percentage of proliferating cells was calculated by relating each absolute value to the control intended as PC3 cells treated with DMSO alone. An IC50 value was then derived by plotting all data on a dose–response curve (Graph Pad software) by using nonlinear regression fit (equation [log agonist] versus response).

A short description of data set [1]: metabolic stability in rat liver microsomes (RLM). The conditions noted are these: RLM, 50 μM substrate, with NADPH. The data set is classed as in vitro ADME. As to the method:
(§1) Twelve esters were prepared (see the Experimental Section for their synthesis and the Supporting Information for chromatographic methods) and evaluated in terms of metabolic stability. For this task, a combined approach based on microsomal and plasmatic stability assays was exploited considering the relevance of the plasmatic and hepatic tissues in esterase activity. Microsomal stability of the selected esters was evaluated by monitoring the disappearance of the substrate incubated in rat liver microsomes (RLM) at 50 μM concentration, in the presence of NADPH. In Table 4, the percentage of the remaining substrate, after incubation (t=60 min), with respect to the initial amount is reported. Overall, the compounds underwent a relevant metabolic transformation, and the substrate depletion ranged from 0 (for 76) to 100 % (for 70). This is mainly due to hydrolysis of the ester function, whereas the metabolites arising from the oxidation catalyzed by the NADPH‐dependent monooxygenase system were negligible from a quantitative point of view. Indeed, the main metabolite formed during the incubation of the esters was corresponding carboxyl derivative 37. […] Moreover, whereas CH2‐pyridin‐4‐yl ester 70 was completely metabolized, corresponding benzyl derivative 65 and piperonyl derivative 72 were more hydrolytically stable, and their residual substrates were 53 and 83 %, respectively. The hydrolytic stability of the selected esters was also evaluated by monitoring the depletion of the substrate incubated at a 50 μM concentration in mouse plasma over a period of 30 min. As expected, the plasmatic metabolic fate of the esters was characterized by the formation of 37 as the only metabolite (see Figure S4). The rate constant k [min^−1], derived for the substrate peak area versus time curve (single‐exponential decay equation—GraphPad Prism software, Inc., San Diego, CA (USA); see Figure S5) was used to calculate the in vitro half‐life t 1/2 [min], and the values are reported in Table 4.
Metabolic stability of PI3K inhibitors in RLM fraction
The standard incubation mixture (500 µL final volume), in 1.5 mL Eppendorf tubes, was carried out in a 50 mM TRIS-HCl buffer (pH 7.4) containing 3.3 mM MgCl2, 1.3 mM NADPNa2, 3.3 mM glucose 6-phosphate, 0.4 Units/mL glucose 6-phosphate dehydrogenase (NADPH regenerating system), acetonitrile as cosolvent (1% of final volume) and 50 µM of substrate. After pre-equilibration of the mixture, an appropriate volume of rat microsomal suspension was added to give a final protein concentration of 1 mg/mL. The mixture was shaken for 1 hour at 37°C and the reaction was quenched by diluting the samples with 500 µL of ice-cold acetonitrile. The samples were then centrifuged at 13,000 rpm for 10 min, and the supernatant was directly injected onto the HPLC column for analysis. Control incubations were performed without microsomes. […]
(§2) A Shimadzu HPLC system (Shimadzu, Kyoto, Japan), consisting of two LC-10AD Vp module pumps, an SLC-10A Vp system controller, an SIL-10AD Vp autosampler, and a DGU-14-A on-line degasser was used for the analysis. All the chromatographic separations were performed on a Phenomenex Luna C18 5µm (150 x 4.6 mm i.d.) (Phenomenex srl, Castel Bolognese, Italy) as a stationary phase protected by a Luna C18 SecurityGuard (Phenomenex srl). The SPD-M10Avp photodiode array detector was used to detect the analyte at 254 nm. LC Solution 1.24 software was used to process the chromatograms. Aliquots (20 µL) of supernatants obtained from incubations were injected onto the HPLC system and eluted with a mobile phase (flow rate: 1 mL/min) consisting of solvent A- 0.5% aqueous formic acid solution and solvent B- acetonitrile/methanol 80:20.
(§3) The eluants were filtered through a 0.45-µm pore size polyvinylidene difluoride membrane […]
(§4) The following gradients programs were used: […]
A general note: Microsomes from liver hold many membrane-bound enzymes, among them those of drug oxidation.

The nature of data set [2]: stability in mouse plasma. The data set is classed as in vitro ADME. The note with it: 50 μM substrate, 30 min. The procedure:
as §1, with “4. […]” for “4.”
Stability of PI3K inhibitors in mouse plasma
An aliquot of 460 µL of blank plasma spiked with substrate (50 µM, final concentration, DMSO 5%) was incubated at 37 °C for 30 minutes. Aliquots (70 µL) of the incubation took at 0-2-5-10-20, and 30 minutes were diluted with 140 µL of acetonitrile, homogenized, and centrifuged at 13,000 rpm for five minutes. Supernatants (20 µL) were injected onto HPLC.
as §2, §3, §4

Data set [3] deals with PI3Ks, all of the isoforms. On the set-up: method as in PMID 8106507. The conditions noted are these: read-out: IC50 against all of the isoforms; cited from earlier work.
The next data set concerns PI3Ks. As to the kind of experiment: PI3K inhibitory activity of copper salts. The data set is classed as biochemical. The conditions noted are these: up to 10 μM. The procedure: With this procedure in hand, we proceeded with our combinatorial strategy. The azides were selected to introduce both electron‐donating and electron‐withdrawing groups, hydrogen‐bond donors and acceptors, and ionizable functions. They were already present in our database or prepared according to standard procedures. […] Then, the 1,2,3‐triazoles were evaluated for their ability to inhibit PI3K isoforms of class I at a fixed concentration of 1 μM, as shown in Table 1. The synthesized 1,2,3‐triazoles along with their ability to inhibit PI3K isoforms at 1 μM concentration are reported. Possibly, a minute concentration of copper salts might have precipitated with the products and might have been retained in the purified compounds, and so, we also evaluated the PI3K inhibitory activity of these salts.

As for `CCCCCCCCCCCCCCCCCCOC(=O)c1cccc(Cn2cc(-c3cccc4c(=O)cc(N5CCOCC5)[nH]c34)nn2)c1` [Compound 76, Octadecyl 3‐{[4‐(2‐morpholino‐4‐oxo‐1,4‐dihydroquinolin‐8‐yl)‐1H‐1,2,3‐triazol‐1‐yl]methyl}benzoate], the Cell proliferation entry in the data set with PC3 cells was “inactive”. The compound also gave a substrate depletion in data set [1] (60 min) of 0%. Further, the “Residual microsomal substrate (t=60 min)” value in data set [1] (LC–UV) was 100%. The “hydrolysis by mouse plasma hydrolases” value in data set [2] was “inert to the mouse plasma hydrolases”.

By IC50 is commonly meant the concentration that inhibits the measured activity by half. For the compound `O=c1cc(N2CCOCC2)oc2c(-c3ccccc3)cccc12` [LY294002], the IC50 in data set [3] was approximately 500 nM.

Take `[Cu+].[I-]` [copper(I) iodide]: the “inhibition of PI3Ks” value in the data set on PI3Ks was “Neither copper(II) acetate nor copper(I) iodide displayed significant inhibition of PI3Ks up to 10 μM”.

Turning to `CC(=O)[O-].CC(=O)[O-].[Cu+2]` [copper(II) acetate], the “inhibition of PI3Ks” value with PI3Ks was “Neither copper(II) acetate nor copper(I) iodide displayed significant inhibition of PI3Ks up to 10 μM”.

The values are drawn from publication PMC5697638, “Identification of a Potent Phosphoinositide 3‐Kinase Pan Inhibitor Displaying a Strategic Carboxylic Acid Group and Development of Its Prodrugs” (Chemmedchem, 2017).
